Data set [1] relates to Pf NF54. The conditions noted are these: ref Beteck et al., 2018, cited from earlier work.
Data set [2] concerns multidrug resistant Pf K1. Set-up: method as in Beteck et al., 2018. The conditions noted are these: ref Beteck et al., 2018; read-out: IC50 against multidrug resistant Pf K1; cited from earlier work.
Data set [3] in a line: In vivo pharmacokinetics, oral administration. More on the design: species or system C57BL/6 mice. The conditions noted are these: mice. Here is the method:
Healthy C57BL/6 mice each weighing approximately 25 g were maintained at the University of Cape Town animal facility. Mice were housed in 27 × 21 × 28 cm cages (n = 3) under controlled environmental conditions at 22 ± 2°C, humidity of 55 ± 15% and a 12-hour light/dark cycle. Food and water were available ad libitum. Mice were acclimatised to the experimental environment for 4–5 days prior to initiating the experiments. RMB005, −059 and −060 were prepared in an aqueous solution of HPMC containing 0.2% Tween 80. The weighed compound was sonicated and vortexed to obtain a homogenous suspension. Oral dosing of 20 mg/kg was achieved via oral gavage. The total volume per administration was 200 μL. Blood samples were collected post-dose in lithium heparin microvials via tail bleeding at predetermined intervals at 0.5, 1, 3, 5, 8, 10, and 24 h. Samples were gently vortexed and stored at −80°C until analysis. A quantitative LC-MS/MS assay was used to determine whole-blood concentrations of RMB005, −059 and −060. Whole blood samples (20 μL) were treated with 100 μL ice cold acetonitrile containing the compound RMB073 used previously for determination of whole blood concentrations in analysis of TB-active compounds, as internal standard (200 ng/ml) ([Tanner et al., 2019]). The mixture was vortexed vigorously for 1 min, and 5 µL of the supernatant were injected onto the analytical column following centrifugation (5,590 g for 5 min). Gradient elution was carried out using a Gemini NX-C18 analytical column (5 μm, 2.1 mm × 50 mm). The aqueous mobile phase consisted of 5 mm ammonium acetate with 0.1% acetic acid in deionised water, while the organic phase consisted of 0.1% acetic acid in acetonitrile. A Shimadzu HPLC and reverse phase Gemini NX-C18 column coupled to an AB Sciex 3200 Q TRAP MS was operated at unit resolution in the multiple reaction monitoring (MRM) mode. […] The calibration standards ranged from 2 ng/mL to 3,000 ng/mL for RMB005, and 2 ng/mL to 4,000 ng/mL for RMB059, −060 and DQ. Drug concentration versus time plots for each compound were used to determine maximal drug concentration C max, time T max to reach C max, elimination half-life t 1/2 and the area under the concentration-time curve from time zero to infinity, AUC0-inf. From these values the following PK parameters—clearance CL, volume of distribution (Vd) and oral bioavailability (BA) were determined using the non-compartmental analysis Microsoft Excel Add-In PKSolver ([Zhang et al., 2010]).

Data set [4] can be described thus: Metabolic stability in mouse liver microsomes. Type of data set: in vitro ADME. Here is the method:
A 5-point metabolic stability assay in human and mouse liver microsomes were performed in duplicate in 96-well plates. Stock solution of RMB005, −059 and 060 prepared in DMSO were individually incubated at 37°C in mouse and pooled human liver microsomes (0.4 mg/mL). An aliquot was removed at 0 min and quenched with ice cold acetonitrile containing the internal standard carbamazepine (0.1 μM). The cofactor NADPH was added, and the reactions were subsequently stopped at time points 5, 10, 30, and 60 min by removal of an aliquot and quenching with ice cold acetonitrile containing the internal standard. The supernatant of all samples were analysed via LC-MS/MS analysis (reverse phase Gemini NX-C18 column and Shimadzu HPLC and AB Sciex 3200 Q TRAP MS). Calculation of in vitro t1/2, intrinsic clearance rate (CLint) and predicted in vivo clearance (CLH) was carried out using the following equations ([Obach 1999]). CLintClint= 0.693/t1/2(min) ×Volume of incubation (μL)/microsomal protein (μg) Where t1/2 is calculated in minutes.
Predicted in vivo CLH CLH=Q × fu(plasma)×CLint/fu(mic)/Q+ fu(plasma)× CLint/fu(mic) Where Q is the hepatic blood flow of mouse (90 mL/min/kg) or human (20.7 mL/min/kg). Fu(plasma) is the unbound drug fraction in the plasma and fu(mic) is the unbound fraction in the microsomes.
The equation below was used in the case of RMB059 and -060, where protein-binding data were not available. CLH=Q × CLint/Q+ CLint
(Microsomes from liver hold many membrane-bound enzymes, among them those of drug oxidation.)

A short description of data set [5]: Kinetic solubility in PBS (HPLC-DAD). The format is physicochemical. Conditions: phosphate buffer saline (PBS); for solubility kinetic at 2 h: aqueous buffer, kinetic from dmso stock. Here is the method:
Stock concentrations of test samples (10 mM) were prepared in DMSO and diluted to a final concentration of […] in phosphate buffer saline (PBS) solutions at pH 2, 6.5, and 7.4 in flat-bottomed 96-well plates. A three-point calibration curve of each control and test compound was prepared from stock solutions in DMSO. Plates were agitated on an orbital shaker at room temperature for 2 h at 200 rpm and subsequently analysed using a reverse phase Gemini NX-C18 column (5 μM, 2.1 mm × 50 mm) with an Agilent 1,200 Rapid Resolution HPLC and diode array detection.

“And” between values parts separate entries of the source, which are not always exact repeats. Identical values can stand only once. Like-named read-outs stand apart in the source and are kept apart here.

For the compound `CCCCCCCCCCOc1cc2c(=O)c(C(=O)NCCOCCO)c[nH]c2cc1OCC` [RMB005], the IC50 was 40 nM in data set [1] (Pf NF54, read-out: NF54 IC50 (line in the PK figures, in vitro IC50 in the discussion)); 40.4 nM in data set [1] (read-out: IC50 against Pf NF54); 64.8 nM in data set [2]. Moreover, the Tmax in data set [3] (C57BL/6, mouse, whole blood, po, 20 mg/kg, po 20 mg/kg, dosed compound measured) is roughly 42 min. Besides, the Cmax in data set [3] (C57BL/6, mouse, po 20 mg/kg, whole blood, dosed compound measured, read-out: Cmax) turned out to be 490 ± 20 nM. For the same compound, the BA in data set [3] (po 20 mg/kg vs iv, 20 mg/kg) was 4% and 4 ± 0.3%. Also, in data set [3] (po 20 mg/kg, whole blood, dosed compound measured, 20 mg/kg), the “AUC0-∞” value was 59 µmol·min/L and 59 ± 2 µmol·min/L. The half-life in data set [4] (mouse liver microsomes, NADPH, read-out: Degradation half-life MLM) stood at 72.9 min. In addition, the CLint scaled in data set [4] (mouse, liver microsomes, calculated from t1/2 in MLM, read-out: In vitro CLint MLM) is 104 mL/min/kg. The “Estimated in vivo CLH MLM” value in data set [4] (protein binding data included) is listed as 81.2 mL/min/kg. Also, the kinetic solubility at 2 h in data set [5] (PBS pH 2, read-out: Kinetic solubility pH 2) is less than 5 µM; in data set [5] (PBS pH 6.5, read-out: Kinetic solubility pH 6.5), less than 5 µM; in data set [5] (PBS pH 7.4, read-out: Kinetic solubility pH 7.4) it was less than 5 µM. Besides, the solubility at 2 h in data set [5] (all pH levels tested (pH 2, 6.5, 7.4)) was less than 5 µM.

As a reminder, the IC50 is the concentration that inhibits the measured activity by half. By Tmax is commonly meant the time from dosing to the highest level. A word on the Cmax: it is the highest concentration seen after dosing. The term half-life denotes the time needed for the level to fall by half in the phase considered. A word on the solubility (kinetic): it is the concentration staying in solution when a stock, usually in DMSO, is diluted into the medium. As usually defined, the solubility is how much of the substance goes into solution per volume.

Values taken from paper PMC9450014, “The evaluation of ADME and pharmacokinetic properties of decoquinate derivatives for the treatment of malaria” (Frontiers in Pharmacology, 2022).
